For experiment [1], the target named is T1, human recombinant beta-1 receptors (Homo sapiens, UniProt P08588).
T1 construct: expressed in transfected cells; host or cells: CHO-REX16 cells
In words: β1-receptor radioligand binding, [125I] iodocyanopindolol, CHO-REX16 cells. To be noted: at 100 nM. How it is done: […] receptor binding was measured in human recombinant beta-1 receptors expressed in CHO-REX16 cells, using [^125I] (-) iodocyanopindolol (2000 Ci/mmol) as the radioligand, as described in Kalaria et al., J. Neurochem. 53: 1772-81 (1998), and Minneman et al., Mol. Pharmacol. 16: 34-46 (1979).

Experiment [2] deals with T2, human recombinant beta-2 receptors (Homo sapiens, UniProt P07550).
T2 construct: expressed in transfected cells; host or cells: CHO-WT21 cells
In words: β2-receptor radioligand binding, [125I] iodocyanopindolol, CHO-WT21 cells. The procedure: (§1) Non-selective β-adrenergic and β1-adrenergic radioligand binding assays were performed using rat cortical membranes; β2-adrenergic receptor assays were performed using membranes isolated from CHO cells expressing human, recombinant b2-adrenergic receptor; non-selective α1-adrenergic receptor assays were performed using rat forebrain membranes; and PDE3 binding assays were performed on human platelets. Values in percent illustrate percent inhibition at 1000 nM concentration.

A further experiment concerns the target α1-adrenergic receptor. In words: Non-selective α1-adrenergic receptor assay using rat forebrain membranes. The class given is binding. How it is done:
as §1, with “The ability of Compounds 25 and 8c to inhibit PDE3 and β-adrenergic receptor activity was examined both in vitro and in vivo. […] Non-selective” for “Non-selective”

Experiment [3] concerns isolated ventricular myocytes. Description: Sarcomere shortening (contractility) in isolated ventricular myocytes. The class given is cell-based, rabbit. The procedure: […] Isoproterenol, a potent β-Adrenergic agonist, can produce large increases in cardiac contraction, calcium transient amplitude, and the rates of relaxation (acceleration of relaxation or lusitropic effect). The effects of isoproterenol are then antagonized with different concentrations of a compound of the present invention.
Cardiac myocytes were digested from healthy white New Zealand male rabbits (3-5 lbs), with enzymatic digestion. Briefly, each animal is anesthetized with ketamine (50 mg/kg) and xylazine (6 mg/kg)-IM injection in hind limb. Once the animal was sedated (˜10-15 min), 0.1-0.3 ml of pentobarbital was injected into the ear vein. The heart was exposed by a cut just below the rib-cage and bilateral thoracotomy and removed rapidly ensuring that aorta remains intact. The heart was immediately placed in oxygenated NT with Ca^2+ placed on ice for rinsing the blood out, cleared from vessels and pericardium, cannulated and maintained at 37° C. The heart was retrogradedly perfused and tissue digested with collagenase and protease. Digested myocytes were subsequently stored in 0.1 mM Ca^2+ normal tyrodes for further analyses. Sarcomere length changes upon treatment with test compounds were recorded at 37° C. in the presence of 2 mM calcium and analyzed with an IonOptix system. Sarcomere length data was acquired for each myocyte over an average of 10 beats duration, at pacing rates of 1, 2, and 3 Hz. Basal percent sarcomere shortening and length-frequency relation of each myocyte was evaluated, and serve as a measure of cellular viability.
In vitro studies were performed using rabbit ventricular tissue, to examine the effects of Compounds 25 and 8c on myocyte contractility. New Zealand male rabbits (1.5-2.5 kg) were anesthetized with ketamine (50 mg/kg) and xylazine (6 mg/kg)-IM. The heart was exposed and removed rapidly to ensure that the aorta remained intact. The ventricular tissue was digested enzymatically. Sarcomere shortening was measured in the presence of 2 mM calcium at 37° C. using an IonOptix system; reported values were at 2 Hz pacing frequency.

Experiment [4] addresses beta-receptors from rat cortical membranes. In words: Non-specific β-receptor radioligand binding, [3H]DHA. To be noted: read-out: Non-selective β-adrenergic IC50. The procedure:
as §1

In experiment [5] the test system is human fetal cardiac fibroblasts. In words: Cyclic-AMP production by fluorescence (intrinsic sympathomimetic activity). The class given is cell-based. The conditions noted are these: IBMX (750 μM) present; compared to isoproterenol or forskolin; any concentration tested. The procedure:
The effect of Compound 8c on cyclic-AMP production was determined in human fetal cardiac fibroblasts by fluorescence, presented in FIG. 18 as [F−Fo)/Fo], mean±SEM, N=4. IBMX (750 μM) was present in all assays.

For a further experiment, the target named is T3, PDE3 (Homo sapiens, UniProt Q14432).
T3 construct: from tissue; host or cells: human platelets
In words: In vitro assay for cAMP PDE-3 inhibitory activity. In kind it is biochemical. The procedure: Human platelet cyclic AMP phosphodiesterase was prepared according to the method of Alvarez et al., Mol. Pharmacol. 29: 554 (1986). The PDE incubation medium contained 10 mM Tris-HCl buffer, pH 7.7, 10 mM MgSO4, and 1 μM […] (0.2 μCi) in a total volume of 1.0 mL. Test compounds were dissolved in DMSO immediately prior to addition to the incubation medium, and the resulting mixture was allowed to stand for 10 minutes prior to the addition of enzyme. Following the addition of PDE, the contents were mixed and incubated for 10 minutes at 30° C. Three assays each were performed for each of five test compound concentrations, the mean of the determinations (n=3) at each concentration was plotted, and IC50 values were determined graphically.
as §1, with “The ability of Compounds 25 and 8c to inhibit PDE3 and β-adrenergic receptor activity was examined both in vitro and in vivo. […] Non-selective” for “Non-selective”

Experiment [6] concerns White New Zealand male rabbits. Description: In vivo β-adrenergic blockade, isoproterenol challenge (Protocol 1). Details: species or system rabbit. The procedure: (§2) Studies were performed on White New Zealand male rabbits (2-3 kg weight). Animals were initially anesthetized with ketamine (50 mg/kg; IM) and xylazine (6 mg/kg, IM). Subsequently, animals were intubated (via tracheotomy; 3 mm tube) and ventilated with 2% isoflurane (mixed in 95% O2+5% CO2). Each rabbit was instrumented for LV pressure (3F Millar catheter) through right carotid artery, arterial pressure (3F catheter, Cook Instruments) through left femoral artery, which was connected to a fluid-filled pressure transducer (BD Instruments), and ECG. Both pressure transducers were zeroed against atmospheric pressure, and calibrated before each study using an analog manometer. Upon completion of instrumentation, isoflurane was reduced to 1.25%, and the animal was covered for maintenance of body core temperature. Arterial and LV blood pressures (LVP) and the ECG signals were simultaneously digitally recorded on a PC. The recording system (Gould Instruments) and the corresponding software (Ponema, Gould Instruments) facilitated detailed calculation of various parameters directly from all signals and record on a separate file with a 1 sec resolution. Upon completion of the study protocol, rabbits were euthenized by isoflurane overdose (5% for at least 1 minute) and cardiac arrest through IV infusion of 5 ml 3 molar potassium chloride.
(§3) Once the physiological variables were stable, effects of each drug on hemodynamics and ECG were determined based on two different protocols: 1) infusion of a compound of the present invention to determine the effects of the compound itself mainly on contractility, and other hemodynamic indices; and 2) infusion of a compound of the present invention while the system was challenged with 0.5 ug/kg isoproterenol to determine the beta-adrenergic antagonism properties of each tested compound.
(§4) White New Zealand male rabbits (2-3 kg) were anesthetized and ventilated (95% O2+5% CO2) with 1.25% isoflurane. Each animal was instrumented for LV pressure (Millar, through left carotid artery), arterial pressure (left femoral artery), infusion (jugular vein), and electrocardiogram. The animals were administered intravenously based on one of these protocols:
Protocol 1: β-adrenergic blockade (isoproterenol challenge).

The test system of experiment [7] is White New Zealand male rabbits. In words: In vivo hemodynamic effects of compounds administered alone (Protocol 2). Further details: species or system rabbit. How it is done:
as §2, §3, §4
Protocol 2: PDE3 inhibition (effects of compounds when administered alone).

For a further experiment, the target named is T4, β1-adrenergic receptor (Rattus norvegicus, UniProt P18090).
T4 construct: from tissue; host or cells: rat cortical membranes
Description: β1-adrenergic radioligand binding assay using rat cortical membranes. How it is done:
as §1

The subject of experiment [8] is White New Zealand male rabbits. Description: In vivo β-adrenergic blockade, isoproterenol challenge (Protocol 1). Details: species or system rabbit; dose or concentration left out as unconfirmed. To be noted: during isoproterenol challenge, intravenous, FIG. 10.

The structures appear in SMILES notation. Like-named read-outs stand apart in the source and are kept apart here.

T2 sequence (P07550 whole entry): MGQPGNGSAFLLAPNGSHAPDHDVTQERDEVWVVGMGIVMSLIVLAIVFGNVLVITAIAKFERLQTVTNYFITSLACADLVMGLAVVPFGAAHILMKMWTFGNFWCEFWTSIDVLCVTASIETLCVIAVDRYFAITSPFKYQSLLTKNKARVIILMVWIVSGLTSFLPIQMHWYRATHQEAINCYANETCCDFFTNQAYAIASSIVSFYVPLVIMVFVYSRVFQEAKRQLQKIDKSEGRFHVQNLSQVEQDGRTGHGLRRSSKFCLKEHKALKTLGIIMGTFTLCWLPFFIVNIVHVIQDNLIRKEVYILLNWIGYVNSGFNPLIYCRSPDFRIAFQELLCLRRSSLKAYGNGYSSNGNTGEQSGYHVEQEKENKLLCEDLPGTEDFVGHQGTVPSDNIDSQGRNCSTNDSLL
T3 sequence (Q14432 whole entry): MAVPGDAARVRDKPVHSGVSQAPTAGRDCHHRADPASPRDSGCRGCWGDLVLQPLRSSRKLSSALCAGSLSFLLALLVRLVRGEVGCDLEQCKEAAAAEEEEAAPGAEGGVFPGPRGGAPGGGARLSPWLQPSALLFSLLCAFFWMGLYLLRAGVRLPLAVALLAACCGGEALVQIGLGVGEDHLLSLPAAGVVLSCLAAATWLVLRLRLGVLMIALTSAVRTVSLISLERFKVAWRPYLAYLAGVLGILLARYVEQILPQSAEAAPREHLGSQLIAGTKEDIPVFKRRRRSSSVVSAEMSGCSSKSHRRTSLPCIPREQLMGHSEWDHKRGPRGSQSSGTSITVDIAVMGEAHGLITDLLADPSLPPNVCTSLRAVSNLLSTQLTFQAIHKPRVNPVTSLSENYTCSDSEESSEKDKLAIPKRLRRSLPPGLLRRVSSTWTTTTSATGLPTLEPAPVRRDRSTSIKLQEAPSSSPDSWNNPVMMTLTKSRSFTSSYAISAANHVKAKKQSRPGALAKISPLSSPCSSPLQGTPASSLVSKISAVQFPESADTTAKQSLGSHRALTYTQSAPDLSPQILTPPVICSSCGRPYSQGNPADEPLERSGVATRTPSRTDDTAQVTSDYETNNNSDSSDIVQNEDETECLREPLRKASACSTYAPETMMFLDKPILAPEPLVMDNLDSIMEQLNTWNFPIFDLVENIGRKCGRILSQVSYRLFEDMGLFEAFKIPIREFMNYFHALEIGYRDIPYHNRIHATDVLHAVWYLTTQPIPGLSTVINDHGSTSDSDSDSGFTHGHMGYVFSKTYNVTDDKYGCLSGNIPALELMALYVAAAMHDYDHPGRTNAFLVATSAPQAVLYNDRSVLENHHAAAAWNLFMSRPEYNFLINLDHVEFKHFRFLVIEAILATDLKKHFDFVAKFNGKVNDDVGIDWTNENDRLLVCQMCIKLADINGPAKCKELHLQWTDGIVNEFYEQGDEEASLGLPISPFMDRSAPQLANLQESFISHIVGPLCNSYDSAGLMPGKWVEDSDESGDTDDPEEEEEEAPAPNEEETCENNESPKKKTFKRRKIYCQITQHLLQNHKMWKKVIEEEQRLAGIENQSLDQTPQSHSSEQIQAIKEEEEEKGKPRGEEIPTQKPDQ
T4 sequence (P18090 whole entry): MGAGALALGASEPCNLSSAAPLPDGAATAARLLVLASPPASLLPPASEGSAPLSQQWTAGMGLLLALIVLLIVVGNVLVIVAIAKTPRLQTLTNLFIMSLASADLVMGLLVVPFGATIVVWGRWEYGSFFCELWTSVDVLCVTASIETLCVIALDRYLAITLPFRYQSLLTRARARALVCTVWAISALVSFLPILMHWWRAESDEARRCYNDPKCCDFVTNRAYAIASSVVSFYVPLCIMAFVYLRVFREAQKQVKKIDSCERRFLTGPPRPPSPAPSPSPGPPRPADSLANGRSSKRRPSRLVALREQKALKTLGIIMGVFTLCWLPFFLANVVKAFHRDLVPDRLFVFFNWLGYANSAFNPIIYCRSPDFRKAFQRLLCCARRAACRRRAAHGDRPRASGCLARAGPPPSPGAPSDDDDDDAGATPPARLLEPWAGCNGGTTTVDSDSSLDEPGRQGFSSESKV
T1 sequence (P08588 whole entry): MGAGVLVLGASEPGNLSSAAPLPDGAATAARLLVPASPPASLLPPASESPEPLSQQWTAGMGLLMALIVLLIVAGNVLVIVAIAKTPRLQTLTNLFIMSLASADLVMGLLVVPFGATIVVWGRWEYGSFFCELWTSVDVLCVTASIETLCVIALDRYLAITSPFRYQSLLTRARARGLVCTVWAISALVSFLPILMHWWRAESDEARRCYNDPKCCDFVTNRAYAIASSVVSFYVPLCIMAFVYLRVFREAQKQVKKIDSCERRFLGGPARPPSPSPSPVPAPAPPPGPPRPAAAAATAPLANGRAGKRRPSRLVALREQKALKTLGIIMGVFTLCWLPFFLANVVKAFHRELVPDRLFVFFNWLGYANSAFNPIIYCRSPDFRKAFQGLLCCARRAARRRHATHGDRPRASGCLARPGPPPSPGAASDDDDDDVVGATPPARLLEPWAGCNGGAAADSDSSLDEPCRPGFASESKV

Broadly, the inhibition is the percentage by which the read-out fell short of the control. A word on the IC50: it is the concentration at which inhibition is half-maximal. As to `O=C1CCC(c2ccc(OCC(=O)N3CCC(NC[C@H](O)COc4ccccc4Cl)CC3)c(Cl)c2)=NN1` [Compound 8c, 6-[3-Chloro-4-(2-{4-[3-(2-chloro-phenoxy)-2-hydroxy-propylamino]-piperidin-1-yl}-2-oxo-ethoxy)-phenyl]-4,5-dihydro-2H-pyridazin-3-one], the inhibition at 0.1 µM in experiment [1] and in experiment [2] (at 100 nM) was more than 25% each time. The IC50 is 0.8 nM in [2] (membranes from CHO cells expressing human recombinant β2-adrenergic receptor); 226 nM at α1-adrenergic receptor; 14 nM in [4]; less than 1000 nM on PDE3 (human platelet cyclic AMP phosphodiesterase, bound stated, read-out: PDE3 inhibition IC50); 150 nM on PDE3 (human platelets, read-out: PDE3 IC50); 5 nM at β1-adrenergic receptor. In addition, the “blocking of isoproterenol effect on myocyte contractility” value in experiment [3] (0.1 μM isoproterenol (not shown)) is “blocking the effects of 0.1 mM isoproterenol”. In [3] (2 mM calcium, 37° C., 2 Hz pacing frequency), the “contractility (sarcomere shortening) in isolated ventricular myocytes” value was “increased contractility”. In addition, in experiment [5], the “intrinsic sympathomimetic activity (cyclic-AMP production)” value is “did not possess intrinsic sympathomimetic activity”. Also, in experiment [6] (doses that completely diminished isoproterenol-dependent increase in heart rate: atenolol 1 mg/kg, carvedilol 0.3 mg/kg, Compound 8c 1 mg/kg, mean±SEM), the “decrease of left ventricular contractility (% of isoproterenol effect)” value turned out to be 73±4%. Besides, the “β-adrenergic antagonism on heart rate (HR)” value in experiment [6] (during isoproterenol challenge (0.5 μg/kg), FIG. 11) was “dose-dependent β-adrenergic antagonism”. Also, the “heart rate when administered alone” value in experiment [7] (Protocol 2, with and without atropine and bilateral vagotomy (FIG. 16)) is listed as “did not increase heart rate”. The mean arterial pressure entry in experiment [7] (doses that completely diminished isoproterenol-dependent increase in heart rate, Protocol 2, FIG. 15) is “did not have a significant effect”. The “left ventricular contractility when administered alone” value in [7] (protocol 2, relative to control, FIGS. 2, 12) is on record as “increased or maintained contractility in a dose-dependent manner”. For the same molecule, the “β-adrenergic antagonism on left ventricular contractility” value in [8] is recorded as “potent dose-dependent β-adrenergic antagonism”.

The record behind these values is patent US20080255134A1 (Artesian Therapeutics, Inc., priority 2004, published 2008).
